Paper PMC9516332 (Frontiers in Oncology, 2022)
Read-outs that look alike come from different tables or passages of the source.

Key:
[1] = target: panel of 255 wild-type kinases (Homo sapiens, UniProt O00311); test: Kinase panel profiling at 1 µmol/L (MSA or IMAP), percentage inhibition; format: biochemical; details: CDC7/ASK kinase assay; 1 µmol/L single concentration; read-out: %-inhibition CDC7/ASK
[2] = target: panel of 255 wild-type kinases (Homo sapiens, UniProt P42684); test: as above; format: biochemical; details: ARG kinase assay; 1 µmol/L single concentration; read-out: %-inhibition ARG
[3] = system: 134 cancer cell lines
[4] = system: AP-1060 (ETV6-NTRK3); test: Cell viability assay; details: read-out: IC50 in cell proliferation assay
[5] = system: 134 cancer cell lines; test: Cell viability assay (ATPlite, 72 hours), IC50 on cancer cell line panel

COc1cc2ncnc(Nc3ccc(F)c(Cl)c3)c2cc1NC(=O)/C=C/CN1CCCCC1 [dacomitinib]
inhibition at 1 µM [1]: 0.799%
inhibition at 1 µM [2]: 40%
IC50 [3]: 0.018 µM
IC50 [4]: 3.46 µM
lower IC50 of the most sensitive cell line compared to the panel average ([5]; 134 cell line panel): more than 1000 fold
IC50 ([5]; HEC-6, read-out: IC50 in cell proliferation assay, HEC-6 cell line (EGFR p.A289V)): 2.51 µM
IC50 ([5]; Homo sapiens, 769-P, read-out: IC50 in cell proliferation assay, cell line 769-P): 0.032 µM
IC50 ([5]; Homo sapiens, 786-0, read-out: IC50 in cell proliferation assay, cell line 786-O): 3.04 µM
IC50 ([5]; Homo sapiens, A 172, read-out: IC50 in cell proliferation assay, cell line A-172): 3.62 µM
IC50 ([5]; Homo sapiens, A204, read-out: IC50 in cell proliferation assay, cell line A-204): 2.51 µM
IC50 ([5]; Homo sapiens, A498, read-out: IC50 in cell proliferation assay, cell line A-498): 2.57 µM
IC50 ([5]; Homo sapiens, A549, read-out: IC50 in cell proliferation assay, cell line A-549): 6.63 µM
IC50 ([5]; Homo sapiens, A704, read-out: IC50 in cell proliferation assay, cell line A-704): 3.91 µM
IC50 ([5]; Homo sapiens, A-375, read-out: IC50 in cell proliferation assay, cell line A-375 (BRAF p.V600E)): 3.46 µM
IC50 ([5]; Homo sapiens, A-427, read-out: IC50 in cell proliferation assay, cell line A-427): 2.89 µM
IC50 ([5]; Homo sapiens, ACHN, read-out: IC50 in cell proliferation assay, cell line ACHN): 0.011 µM
IC50 ([5]; Homo sapiens, AN3-CA, read-out: IC50 in cell proliferation assay, cell line AN3-CA (FGFR2 p.N549K)): 3.75 µM
IC50 ([5]; Homo sapiens, ASPC1, read-out: IC50 in cell proliferation assay, cell line AsPC-1): 5.82 µM
IC50 ([5]; Homo sapiens, AU565, read-out: IC50 in cell proliferation assay, cell line AU565 (ERBB2 amplification)): 0.068 µM
IC50 ([5]; Homo sapiens, BT-20, read-out: IC50 in cell proliferation assay, cell line BT-20): 5.62 µM
IC50 ([5]; Homo sapiens, BT-474, read-out: IC50 in cell proliferation assay, cell line BT-474 (ERBB2 amplification)): 0.037 µM
IC50 ([5]; Homo sapiens, BT-549, read-out: IC50 in cell proliferation assay, cell line BT-549): 3.68 µM
IC50 ([5]; Homo sapiens, BXPC-3, read-out: IC50 in cell proliferation assay, cell line BxPC-3): 4.06 µM
IC50 ([5]; Homo sapiens, C-33-A, read-out: IC50 in cell proliferation assay, cell line C-33 A): 0.04 µM
IC50 ([5]; Homo sapiens, CAL-27, read-out: IC50 in cell proliferation assay, cell line CAL-27): 0.011 µM
IC50 ([5]; Homo sapiens, CCF-STTG1, read-out: IC50 in cell proliferation assay, cell line CCF-STTG1): 5.61 µM
IC50 ([5]; Homo sapiens, CCRF-CEM, read-out: IC50 in cell proliferation assay, cell line CCRF-CEM): 3.27 µM
IC50 ([5]; Homo sapiens, COLO 205, read-out: IC50 in cell proliferation assay, cell line COLO 205 (BRAF p.V600E)): 4.28 µM
IC50 ([5]; Homo sapiens, COLO-829, read-out: IC50 in cell proliferation assay, cell line COLO 829 (BRAF p.V600E)): 6.02 µM
IC50 ([5]; Homo sapiens, DLD-1, read-out: IC50 in cell proliferation assay, cell line DLD-1): 3.24 µM
IC50 ([5]; Homo sapiens, DU-4475, read-out: IC50 in cell proliferation assay, cell line DU4475 (BRAF p.V600E)): 5.24 µM
IC50 ([5]; Homo sapiens, Daoy, read-out: IC50 in cell proliferation assay, cell line Daoy): 3.77 µM
IC50 ([5]; Homo sapiens, DoTc2-4510, read-out: IC50 in cell proliferation assay, cell line DoTc2 4510): 0.012 µM
IC50 ([5]; Homo sapiens, EOL1, read-out: IC50 in cell proliferation assay, cell line EoL-1 (FIP1L1-PDGFRA)): 0.72 µM
IC50 ([5]; Homo sapiens, FaDu, read-out: IC50 in cell proliferation assay, cell line FaDu): 0.013 µM
IC50 ([5]; Homo sapiens, G-361, read-out: IC50 in cell proliferation assay, cell line G-361 (BRAF p.V600E)): 4.11 µM
IC50 ([5]; Homo sapiens, HCC827, read-out: IC50 in cell proliferation assay, cell line HCC827 (EGFR exon19del)): 0.00113 µM
IC50 ([5]; Homo sapiens, HCC4006, read-out: IC50 in cell proliferation assay, cell line HCC4006 (EGFR exon19del)): 0.00119 µM
IC50 ([5]; Homo sapiens, HCT-15, read-out: IC50 in cell proliferation assay, cell line HCT 15): 3.45 µM
IC50 ([5]; Homo sapiens, HCT-116, read-out: IC50 in cell proliferation assay, cell line HCT 116): 2.3 µM
IC50 ([5]; Homo sapiens, HEC-1, read-out: IC50 in cell proliferation assay, HEC-1 cell line): 1.91 µM
IC50 ([5]; Homo sapiens, HEC-1B, read-out: IC50 in cell proliferation assay, HEC-1-B cell line (EGFR p.A864V)): 0.014 µM
IC50 ([5]; Homo sapiens, HL-60, read-out: IC50 in cell proliferation assay, HL-60 cell line): 1.74 µM
IC50 ([5]; Homo sapiens, HT, read-out: IC50 in cell proliferation assay, HT cell line): 3.76 µM
IC50 ([5]; Homo sapiens, HT-1080, read-out: IC50 in cell proliferation assay, HT-1080 cell line): 2.79 µM
IC50 ([5]; Homo sapiens, Hs746T, read-out: IC50 in cell proliferation assay, Hs 746.T cell line (MET exon14skip + amplification)): 3.12 µM
IC50 ([5]; Homo sapiens, Hs-578T, read-out: IC50 in cell proliferation assay, Hs 578T cell line): 3.09 µM
IC50 ([5]; Homo sapiens, HuTu80, read-out: IC50 in cell proliferation assay, HuTu 80 cell line): 4.06 µM
IC50 ([5]; Homo sapiens, J82, read-out: IC50 in cell proliferation assay, J82 cell line): 3.95 µM
IC50 ([5]; Homo sapiens, Jurkat E6.1, read-out: IC50 in cell proliferation assay, Jurkat E6.1 cell line): 3.18 µM
IC50 ([5]; Homo sapiens, K562, read-out: IC50 in cell proliferation assay, K-562 cell line): 3.44 µM
IC50 ([5]; Homo sapiens, KATO III, read-out: IC50 in cell proliferation assay, KATO III cell line (FGFR2 amplification)): 2.96 µM
IC50 ([5]; Homo sapiens, KG-1, read-out: IC50 in cell proliferation assay, KG-1 cell line (FGFR1OP2-FGFR1)): 2.57 µM
IC50 ([5]; Homo sapiens, KLE, read-out: IC50 in cell proliferation assay, KLE cell line): 3.44 µM
IC50 ([5]; Homo sapiens, KMS-11, read-out: IC50 in cell proliferation assay, KMS-11 cell line (FGFR3 p.Y373C)): 3.54 µM
IC50 ([5]; Homo sapiens, KU812, read-out: IC50 in cell proliferation assay, Ku812 cell line): 3.2 µM
IC50 ([5]; Homo sapiens, Kasumi 1, read-out: IC50 in cell proliferation assay, Kasumi-1 cell line (KIT p.N822K)): 1.63 µM
IC50 ([5]; Homo sapiens, LC-2-ad, read-out: IC50 in cell proliferation assay, LC-2/ad cell line (CCDC6-RET)): 2.89 µM
IC50 ([5]; Homo sapiens, LNCaP-Clone-FGC, read-out: IC50 in cell proliferation assay, LNCaP clone FGC cell line): 7.97 µM
IC50 ([5]; Homo sapiens, LS174T, read-out: IC50 in cell proliferation assay, LS174T cell line): 2.67 µM
IC50 ([5]; Homo sapiens, LS-411N, read-out: IC50 in cell proliferation assay, LS411N cell line (BRAF p.V600E)): 4.24 µM
IC50 ([5]; Homo sapiens, LoVo, read-out: IC50 in cell proliferation assay, LoVo cell line): 4.3 µM
IC50 ([5]; Homo sapiens, MCF7, read-out: IC50 in cell proliferation assay, MCF-7 cell line): 12.9 µM
IC50 ([5]; Homo sapiens, MDA-MB-231, read-out: IC50 in cell proliferation assay, MDA-MB-231 cell line): 3.69 µM
IC50 ([5]; Homo sapiens, MDA-MB-453, read-out: IC50 in cell proliferation assay, MDA-MB-453 cell line): 3.25 µM
IC50 ([5]; Homo sapiens, MDA-MB-468, read-out: IC50 in cell proliferation assay, MDA-MB-468 cell line): 0.033 µM
IC50 ([5]; Homo sapiens, MG-63, read-out: IC50 in cell proliferation assay, MG-63 cell line): 4 µM
IC50 ([5]; Homo sapiens, MIA PaCa-2, read-out: IC50 in cell proliferation assay, MIA PaCa-2 cell line): 3.93 µM
